According to patent publication US20200247812A1 (Integral Biosciences Private Limited, priority 2018, published 2020):

Columns and labels:
Type in all cases: cell-based
[1] = tested on: mIFN-γ release by activated mouse splenocytes; assay: Mouse splenocyte assay: reversal of TGF-β suppressed, CD3e/CD28 induced mIFN-γ release (ELISA); conditions: Balb/c splenocytes, anti-CD3e/CD28, mouse TGF-β 10 ng/ml, 72 hr, read-out: Inhibition of mIFN-γ release by activated Mouse Splenocyte, IC50
Procedure: IC50 values of compounds for reversal of TGF-β suppressed and CD3e/CD28 induced mIFNγ release was determined in mouse splenocytes isolated from Balb/c mice cultured in RPMI, Cat #22400089; 10% FBS, Gibco, ThermoFisher). Mouse splenocytes (2×10^5 cells/well) were activated with Anti-mouse CD3e (2.5 μg/ml, coated overnight at 4° C.; Cat #14-0032-82, eBioscience) and then incubated with serial dilutions of compounds (3 fold, 8 point dose response starting at 3 μM) in the presence of mouse TGF-β (10 ng/ml; Cat #14-8342-80, ebiosciences) for 30 min at 37° C., 5% CO2 in an incubator (cell culture conditions) prior to treating them with Anti-mouse CD28 (0.1 μg/ml soluble; Cat #16-0281-82, eBiosciences). Splenocytes were further incubated under cell culture conditions for 72 hr after which the supernatant was harvested, diluted to 1:50 and ELISA was performed as per the manufacturer's protocol (mIFN-γ kit; Cat #555138 & 550534, BD Biosciences). Plates were read in Biotek plate reader by measuring absorbance at 450 nm.
The reversal of TGF-β suppressed mIFN-γ release by compounds was quantified by first obtaining the amount of mIFN-γ (in pg/ml) released at each concentration of the compound with respect to the mIFN-γ standard. […] The IC50 was calculated by fitting the curve to the “four-parameter variable slope logistic model” using Prism Graph Pad.

MiaPaCa-2 = assay: Cell viability assay (resazurin), MiaPaCa-2; conditions: Homo sapiens, MIA PaCa-2, 72-144 hr
Procedure: (§1) Different cell lines such as pancreatic, (MIA PaCa-2; ATCC®CRL-1420™ & and Panc-1; CRL-1469™), liver carcinoma (HepG2; ATCC® HB-8065™), lung epithelial carcinoma (A549; ATCC® CCL-185™) and others were seeded in their respective medium (DMEM, Cat #10569044, MEM, Cat #41090036; RPMI, Cat #22400089; all with 10% FBS, Gibco, ThermoFisher) at a cell count of 3000 cells per 100 μl per well in a 96 well edge plate (167425; ThermoFisher). Cells were allowed to grow at 37° C. for 24 hr in 5% CO2 (culture conditions) in a Nuaire incubator (humidified). Serially diluted compounds (100 μl) were added to the culture plate 24 hr later and the cultures were further incubated in culture conditions for specified time depending on doubling time of specific cell line (ranging from 72-144 hr). […] Fluorescence was then measured using a multimodal plate reader (Biotek Synergy Neo) at an excitation wavelength of 535 nm and emission wavelength of 590 nm to obtain relative fluorescence units. Data analysis was done by subtracting the background fluorescence (only medium blank) value from each reading and then normalizing with the vehicle control (DMSO treated cells) to obtain percent survival/proliferation. […]

HCT116 = assay: Cell viability assay (resazurin), HCT116; conditions: Homo sapiens, HCT-116, 72-144 hr
Procedure: (§2) Different cell lines such as pancreatic, (MIA PaCa-2; ATCC®CRL-1420™ & and Panc-1; CRL-1469™), liver carcinoma (HepG2; ATCC® HB-8065™), lung epithelial carcinoma (A549; ATCC® CCL-185™) and others were seeded in their respective medium (DMEM, Cat #10569044, MEM, Cat #41090036; RPMI, Cat #22400089; all with 10% FBS, Gibco, ThermoFisher) at a cell count of 3000 cells per 100 μl per well in a 96 well edge plate (167425; ThermoFisher). Cells were allowed to grow at 37° C. for 24 hr in 5% CO2 (culture conditions) in a Nuaire incubator (humidified). Serially diluted compounds (100 μl) were added to the culture plate 24 hr later and the cultures were further incubated in culture conditions for specified time depending on doubling time of specific cell line (ranging from 72-144 hr). Experiment was terminated at the completion of incubation time with the drug by replacing the medium with 100 μl of 1 mM of resazurin (R7017; Sigma) prepared in respective culture medium and the plates were further incubated in culture conditions for 4 hr. Fluorescence was then measured using a multimodal plate reader (Biotek Synergy Neo) at an excitation wavelength of 535 nm and emission wavelength of 590 nm to obtain relative fluorescence units. Data analysis was done by subtracting the background fluorescence (only medium blank) value from each reading and then normalizing with the vehicle control (DMSO treated cells) to obtain percent survival/proliferation. Percent survival at different doses was used to calculate IC50 by fitting the curve to the “four-parameter variable slope logistic model” using Prism Graph Pad.

[2] = tested on: phosphorylation of Smad-2 in THP-1 cells; assay: Inhibition of phosphorylation of Smad-2 in THP-1 cells (Phospho-Smad2 ELISA); conditions: 1.5 h, human TGF-β 20 ng/ml, 90 min, read-out: pSmad2 IC50
Procedure: IC50 values of compounds for determining inhibition of phosphorylation of Smad-2 in THP-1 cells (ATCC, Cat # ATCC® TIB-202™) cultured in RPMI medium, (Cat #22400089; with 10% FBS, Gibco, ThermoFisher). THP-1 cells (1.0×10^6 cells/well; 6 well plate) were incubated with serial dilutions of compounds (3 fold, 5 point dose response starting at 10 μM) for 60 min at 37° C., 5% CO2 in an incubator (cell culture conditions) prior to treating them with Recombinant Human TGF-β (20 ng/ml soluble; Cat #100-21, Peprotech) for 90 min. The cells were then pelleted and processed for protein estimation and evaluation of pSmad using ELISA kit from Cell Signaling (PathScan(R) Phospho-Smad2 (Ser465/467) Sandwich ELISA; Cat #7348C) as per manufacturer's protocol. Data analysis was done by subtracting the background absorbance (only negative control) value from each reading and then normalizing with the vehicle control (DMSO treated cells) to obtain percent levels of pSmad-2. Percent inhibition thus obtained (by subtracting expression levels of pSmad from 100) at different doses was used to calculate IC50 by fitting the curve to the “four-parameter variable slope logistic model” using Prism Graph Pad.

MCF7 = assay: Cell viability assay (resazurin), MCF7; conditions: Homo sapiens, 72-144 hr
Procedure: as §2

A427 = assay: Cell viability assay (resazurin), A427; conditions: Homo sapiens, A-427, 72-144 hr
Procedure: as §2

HT29 = assay: Cell viability assay (resazurin), HT29; conditions: Homo sapiens, HT-29, 72-144 hr
Procedure: as §1

MV-4-11 = assay: Cell viability assay (resazurin), MV-4-11; conditions: Homo sapiens, MV4-11, 72-144 hr
Procedure: as §2

22Rv1 = assay: Cell viability assay (resazurin), 22Rv1; conditions: Homo sapiens, 72-144 hr
Procedure: as §2

AsPC-1 = assay: Cell viability assay (resazurin), AsPC-1; conditions: Homo sapiens, ASPC1, 72-144 hr
Procedure: as §2

| IC50 [1] [µM] | IC50 (MiaPaCa-2) [µM] | IC50 (HCT116) [µM] | IC50 [2] [µM] | IC50 (MCF7) [µM] | IC50 (HT29) [µM] | IC50 (MV-4-11) [µM] | IC50 (22Rv1) [µM] | IC50 (AsPC-1) [µM] | Structure (SMILES) | IC50 (A427) [µM] |
| --- | --- | --- | --- | --- | --- | --- | --- | --- | --- | --- |
| 0.107 | > 30 | 1.97 | 0.539 | > 10 | 3.82 | 0.7 | – | – | CC(C)c1[nH]c(=O)c(-c2cc(Cl)ccc2F)cc1Nc1ccnc2[nH]ccc12 [Compound 1.50, 5-((1H-pyrrolo[2,3-b]pyridin-4-yl)amino)-3-(5-chloro-2-fluorophenyl)-6-isopropylpyridin-2(1H)-one] | 3.55 |
| 0.156 | > 30 | > 30 | 0.123 | > 10 | 14.7 | 19.9 | > 30 | > 30 | CC(=O)Nc1cc(Nc2cc(-c3cc(Cl)ccc3F)c(=O)[nH]c2C(C)C)ccn1 [Compound 1.48, N-(4-((5-(5-chloro-2-fluorophenyl)-2-isopropyl-6-oxo-1,6-dihydropyridin-3-yl)amino)pyridin-2-yl)acetamide] | > 30 |
